Reference: patent publication US20130316349A1, “N-METHYLPURINE DNA GLYCOSYLASE AND POLYMERASE BETA AS BIOMARKERS FOR ALKYLATOR CHEMOTHERAPY POTENTIATION” (University of Pittsburgh - Of the Commonwealth System of …, priority 2010, published 2013)
Entries after “also recorded” stand apart in the source; their conditions may differ.

How the values were obtained:
[1] = tested on: T98G cells; test: Long-term cell survival assay (10 days); type: cell-based; details: 50 and 100 μM TMZ
Method: (§1) Results were calculated from the average of three or four separate experiments and are reported as the percentage of treated cells relative to the cells without treatment (% control).

[2] = tested on: T98G/MPG cells; test: Long-term cell survival assay (10 days); details: for ABT-888-induced potentiation of TMZ: T98G/MPG vs T98G, 50 and 100 μM TMZ, p<0.05 and p<0.01
Method: as §1

[3] = tested on: T98G/MPG/Polβ KD cells; test: Long-term cell survival assay (10 days)
Method: as §1

[4] = tested on: LN428 cells; test: Short-term cell survival assay (48 hours MTS assay); type: cell-based; details: MX 60 mM 30 min, then TMZ with MX 30 mM 48 hours
Method: as §1

[5] = tested on: LN428/MPG cells (MPG over-expressing); test: as above; type: cell-based; details: MX 60 mM 30 min, then TMZ with MX 30 mM 48 hours; LN428/MPG vs LN428
Method: as §1

[6] = tested on: LN428 cells over-expressing mutant MPG (N169D); test: as above; type: cell-based; details: glycosylase dead mutant MPG (N169D) over-expressed in LN428
Method: as §1

[7] = tested on: LN428/MPG/Flag-Polβ-WT cells; test: as above; type: cell-based; details: WT Polβ over-expressed in LN428/MPG
Method: as §1

[8] = tested on: LN428/MPG/Flag-Pol β-K72A cells; test: as above; type: cell-based; details: 5′ dRP lyase null mutant Polβ (K72A) over-expressed in LN428/MPG
Method: as §1

[9] = tested on: LN428/MPG/Flag-APE1 cells; test: as above; type: cell-based; details: APE1 over-expressed in LN428/MPG
Method: as §1

[10] = tested on: LN428/MGMT cells; test: Long-term cell survival assay (10 days); type: cell-based; details: pre- (4 μM) and co-treatment with PJ34 (2 μM)
Method: as §1

[11] = tested on: LN428/MGMT/MPG cells; test: Long-term cell survival assay (10 days); type: cell-based; details: pre- (4 μM) and co-treatment with PJ34 (2 μM); LN428/MGMT/MPG vs LN428/MGMT
Method: as §1

[12] = tested on: PARP; details: PJ34 at 2 μM; cited from earlier work
[13] = tested on: T98G/MPG/Polβ KD cells
Method: as §1

[14] = tested on: PARG mRNA; test: qRT-PCR of PARG mRNA in LN428/MPG cells stably expressing shRNA; type: cell-based; details: LN428/MPG cells stably expressing each shRNA
Method: Human WT MPG, mutant MPG (N169D), WT Flag Polβ and Flag Pol β (K72A) expressing cell lines were developed by transfecting cells with corresponding plasmids using FuGene™ 6 Transfection Reagent (Roche, Indianapolis, Ind.) according to the manufacturer's protocol. Transfected cells were cultured in G418 and/or Puromycin for 2 weeks and individual clones stably expressing human MPG or Pol β were selected. Lentiviral particles were generated by co-transfection of 4 plasmids, pLKO.1-puro-TurboGFP (control, expresses GFP) or pCMV-tGFP-PARG (PARG shRNA, co-expresses PARG shRNA and GFP) together with pMD2.g(VSVG), pVSV-REV and PMDLg/pRRE, into 293-FT cells (Zufferey et al., J. Virol., 72:9873-9880, 1998; Zufferey et al., Nat. Biotechnol., 15:871-875, 1997) using FuGene™ 6 Transfection Reagent (Roche, Indianapolis, Ind.), as described previously (Tang et al., Mol. Cancer Res. 8(1):67-79, 2010). […] Cells expressing copGFP only or both copGFP and PARG specific shRNA were isolated by fluorescence activated cell sorting (FACS).
Expression of MPG, Polβ and PARP1 in the cell lines was measured by quantitative RT-PCR using an Applied Biosystems StepOnePlus™ system as described previously (Tang et al., Mol Cancer Res 8:67-79, 2010). […] Each sample was analyzed in triplicate and the results are an average of all three analyses. […]

[15] = tested on: degradation of PAR (PARG); test: Immunoblot for PAR after TMZ exposure in LN428/MPG cells; type: cell-based; details: 1.5 mM TMZ
Method: Twenty microgram of protein was loaded on a precast 4-20% NuPAGE™ Tris-Glycine gel (Invitrogen, Carlsbad, Calif.). For whole cell extracts used in probing Poly(ADP-ribose) (PAR), 3×10^6 cells were seeded into a 100 mm cell culture dish 24 hours before drug treatment. Cells were then treated with TMZ (1.5 mM) or DMSO (control) for different periods of time. After treatment, cells were washed twice with cold PBS, collected and lysed in 400 μL of 2×Laemmli buffer (2% SDS, 20% Glycerol, 62.5 mM Tris-HCl pH6.8, 0.01% Bromophenol Blue). Samples were boiled for 8 minutes and extracts from approximately 1.5×10^5 cells were loaded each lane on a 4-12% pre-cast NuPAGE™ Tris-Glycine gel (Invitrogen, Carlsbad, Calif.) for immunoblot analysis. The following primary antibodies were used in immunoblot assays: anti-human MPG (Mab; clone 506-3D) (Trivedi et al., Mol. Pharmacol, 2008); anti-Polβ (Mab clone 61; Thermo Fisher Scientific); anti-APE1 (EMD Biosciences); anti-PCNA (Santa Cruz); anti-poly(ADP-ribose) (PAR) (Clone 10H); anti-MGMT (Novus, Littleton, Colo.).

## C[C@]1(c2nc3c(C(N)=O)cccc3[nH]2)CCCN1 [ABT-888]
[1]
  ABT-888-induced potentiation of TMZ: sensitized T98G cells to TMZ
[2]; T98G/MPG cells, no TMZ
  cells killed by ABT-888 treatment alone: ~30%
[2]
  ABT-888-induced potentiation of TMZ: significantly increased the potentiation induced by ABT-888
[2]; listed as A8T-888
  ABT-888-induced potentiation of TMZ: significantly increased A8T-888-induced potentiation of TMZ
[3]; T98G/MPG/Polβ KD cells, no TMZ
  cells killed by ABT-888 treatment alone: about 70%
[3]; T98G/MPG/Polβ KD, 25 and 50 μM TMZ, p<0.01
  ABT-888-induced potentiation of TMZ (cytotoxicity of TMZ and ABT-888 vs TMZ alone): significantly increased ABT-888-induced potentiation of TMZ; also recorded: significantly increased cytotoxicity compared to TMZ treatment alone

## CON [MX, Methoxyamine]
[4]
  MX-induced potentiation of TMZ: sensitized both cell lines to TMZ
[5]
  MX-induced potentiation of TMZ: dramatically increases MX-induced potentiation of TMZ; also recorded: much higher in the MPG over-expressing cells
[6]
  MX-induced potentiation of TMZ: did not sensitize LN428 cells to a combined treatment of MX and TMZ
[7]
  MX-induced potentiation of TMZ: dramatically reduced the potentiation induced by MX
[8]
  MX-induced potentiation of TMZ: did not affect MX-induced potentiation of TMZ
[9]
  MX-induced potentiation of TMZ: did not alter the potentiation of TMZ induced by MX

## CN(C)CC(=O)Nc1ccc2[nH]c(=O)c3ccccc3c2c1 [PJ34]
[10]
  PJ34-induced potentiation of TMZ: sensitized cells to TMZ
[11]
  PJ34-induced potentiation of TMZ: substantially increased PJ34-induced potentiation of TMZ; also recorded: much higher in the MPG over expressing cells
[12]
  level of PARP activation following exposure to TMZ: significantly reduced the level of PARP activation

## Cn1nnc2c(C(N)=O)ncn2c1=O [TMZ, 3-methyl-2-oxo-1,3,4,5,8-pentazabicyclo[4.3.0]nona-4,6,8-triene-7-carbooxamide]
[13]
  IC50: < 25 µM

## PARG shRNA #2: MISSION TRC shRNA targeting PARG, SEQ ID NO: 10 (CCGGCGATTGCATGTCACTTACGAACTCGAGTTCGTAAGTGACATGCAATCGTTTTTG)
[14]
  level of PARG mRNA (rank among five shRNA constructs): second lowest
[15]
  degradation of PAR following exposure to TMZ: greatly decreased the degradation of PAR

## PARG shRNA #4: MISSION TRC shRNA targeting PARG, SEQ ID NO: 12; used for PARG KD (CCGGGCTGAGCGAGATGTGGTTTATCTCGAGATAAACCACATCTCGCTCAGCTTTTTG)
[14]
  level of PARG mRNA (rank among five shRNA constructs): lowest
[15]
  degradation of PAR following exposure to TMZ: greatly decreased the degradation of PAR
